Read-outs that look alike come from different tables or passages of the source.
Tests used:
A2 strain RSV = assay: CPE inhibition assay in MA-104 cells; format: cell-based, Respiratory syncytial virus
Experimental: (§1) The CPE inhibition assay used in this study was performed as described by Sidwell and Huffman (Sidwell et al., 1971, Appl. Microbiol. 22:7979-7801) with slight modifications. Varying concentrations of test compounds were added to each plate containing near confluent cell monolayers (1×10^5 cells/well) followed immediately by the addition of virus at a multiplicity of infection (MOI)=0.01, and then incubated at 37° C. On the following day, the medium from each plate was removed and fresh compound added. The assay was stopped at the end of the sixth day when the virus cytopathic effect in the virus infected, untreated control cells affected all cells. All compounds were assayed for virus inhibition in quadruplicate and for cytotoxicity in duplicate. For each compound, two wells were set aside as uninfected, untreated cell controls per test and four wells per test received virus only and represented controls for virus replication. […] For all CPE-based assays, the 50% effective concentration (EC50) was calculated by regression analysis using the means of the CPE ratings at each concentration of compound.
EC50 Concentration for 50% inhibition of virus replication (microM)
(§2) Determined in MA-104 cells, A2 strain RSV

MA-104 cells = assay: Cytotoxicity graded by morphological change in MA-104 cells; format: cell-based, African green monkey
Experimental: (§3) Embryonic African green monkey kidney cells (MA-104) were obtained from BioWhittaker, Inc. (Walkersville, Md.). HEp-2 cells were propagated from a human epidermoid carcinoma of the larynx (American Type Culture Collection, ATCC; Rockville, Md.). The cells were grown in minimal essential medium. (MEM, Gibco-BRL, Gaitherburg, Md.) supplemented with 0.1% NaHCO3 and 10% fetal bovine serum (FBS, Hyclone Laboratories, Logan Utah.). When performing antiviral assays, serum was reduced to 2% and 50 μg/ml gentamicin (Sigma Chemical Company, St. Louis, Mo.) was added to the medium.
(§4) Morphological changes due to compound cytotoxicity were graded on a scale of 0-5; grade 5 was defined as 100% cytotoxicity. The 50% cytotoxic dose (IC50 was calculated by regression analysis. A selective index (S.I.) was calculated for each compound [S.I.=(IC50)/(EC50 ].
IC50 Conc. for 50% cytotoxicity grade by morphological change (microM)
as §2

RSV M2 RNA = assay: RT-PCR of M2 RNA from RSV-infected 9HTE cells; format: cell-based, Respiratory syncytial virus; conditions: RNA at 8 h post-infection, M.O.I.=10
Experimental: To determine if RSV RNA levels correlated with antiviral activity, RT-PCR analysis was performed on RNA isolated from RSV-infected and uninfected 9HTE cells with and without treatment with spA4 -antiRSV3'3'T/(8281-8299) or spA4 -antiRSV3'3'A/(8530-8547). An M2 RNA sequence in RSV (from nucleotides 7879 to 8465) was converted to cDNA and amplified by PCR. M2 RNA from the RSV-infected cells produced an RT-PCR DNA product that was clearly visible. […] Levels of GAPDH transcripts were similar in all of these RNA preparations.
RNA was collected from 2×10^5 9HTE cells at 8 h post-infection (M.O.I.=10) by RNAzol treatment as described by the manufacturer (Tel-Test, Inc, Freindswood, Tex.). RNA was isolated after 8 h to limit RSV replication to a single cycle. Isolated RNA (≈1 μg) was incubated with 100 pmoles of the appropriate downstream (-) primer listed below or 100 pmoles of random hexamer (used for glyceraldehyde-3-phosphatedehydrogenase, GAPDH, mRNA only). RNA and primers were heated to 70° C. for 10 min then cooled rapidly on ice for 5 min. […]
25 μl Hot-Start upper buffer contained 5 U Taq DNA polymerase (GibcoBRL) and 1/10th of the cDNA from the RT reaction. […] Aliquots of the RT/PCR mixtures were analyzed on 1% agarose/TBE gels.

[1] = tested on: RSV 393 (clinical isolate); assay: Neutral red uptake assay in HEp-2 cells, RSV 393; format: cell-based, Respiratory syncytial virus; conditions: Table 12, neutral red, once a day for two days
Experimental: (§5) This assay was performed by a modified method as described by Cavenaugh et al. (Cavenaugh et al. 1990, Invest. New Drugs 8:347-354). Briefly, medium was removed from each well of a plate scored for CPE from a CPE inhibition assay, 0.2 ml of neutral red (0.034% in PSS) was added to each of the wells of that plate and the plate incubated for 2 hr at 37° C. in the dark. The neutral red solution was removed from the wells and the wells rinsed twice with PBS (pH 7.4). Equal volumes (0.1 ml) of absolute ethanol and Sorenson citrate buffer (0.1 M sodium citrate, 0.1 M HCI, pH 4.2) were mixed together and added to each well. Plates were incubated in the dark for 30 min. at room temperature to solubilize the dye. The plates were then gently mixed on a 96-well plate adapted vortexer for 1 min. Absorbances at 540 nm and 450 nm were read with a microplate reader (Bio-Tek EL 1309; Bio-Tek Instruments, Inc. Winooski, Vt.). Absorbance values were expressed as percents of untreated controls and EC50 and IC50 values were calculated by regression analysis.
(§6) In this series, MP351 was added once a day for two days with fresh medium

RSV CH18537 (B) [2] = assay: Neutral red uptake assay in HEp-2 cells, RSV strain CH18537; format: cell-based, Respiratory syncytial virus; conditions: Table 12, neutral red, once a day for two days
Experimental: as §5, §6

Hep-2 Cells [3] = assay: Neutral red uptake assay of cytotoxicity in HEp-2 cells; format: cell-based, human
Experimental: as §3, §5

Hep-2 Cells [4] = assay: Cytotoxicity by morphological changes in HEp-2 cells (CPE inhibition assay); format: cell-based, human
Experimental: as §3, §4

[5] = tested on: RSV 393 (clinical isolate); assay: CPE inhibition assay in HEp-2 cells, RSV 393; format: cell-based, Respiratory syncytial virus; conditions: Table 12, CPE, once a day for two days
Experimental: as §1, §6

RSV Long (A) [6] = assay: Neutral red uptake assay in HEp-2 cells, RSV strain Long; format: cell-based, Respiratory syncytial virus; conditions: Table 12, neutral red, once a day for two days
Experimental: as §5, §6

RSV strain A2 [7] = assay: Neutral red uptake assay of CPE inhibition in HEp-2 cells; format: cell-based, Respiratory syncytial virus; conditions: read-out: EC50
Experimental: as §5

RSV strain A2 [8] = assay: Virus yield reduction assay in HEp-2 cells; format: cell-based, Respiratory syncytial virus; conditions: compound added twice daily
Experimental: EC50 & EC90 : concentration required to reduce virus (RSV strain
Both compounds were added to the cells twice daily.

RSV CH18537 (B) [9] = assay: CPE inhibition assay in HEp-2 cells, RSV strain CH18537; format: cell-based, Respiratory syncytial virus; conditions: Table 12, CPE, once a day for two days
Experimental: as §1, §6

RSV strain A2 [10] = assay: CPE inhibition assay in HEp-2 cells; format: cell-based, Respiratory syncytial virus; conditions: Table 10, CPE; B.I.D. 3 days; HEp2; read-out: EC50
Experimental: as §1, with “On the following day, the medium from each plate was removed and fresh compound added. The assay was stopped at the end of the sixth day when the virus cytopathic effect in the virus infected, untreated control cells affected all cells.” left out

RSV Long (A) [11] = assay: CPE inhibition assay in HEp-2 cells, RSV strain Long; format: cell-based, Respiratory syncytial virus; conditions: Table 12, CPE, once a day for two days
Experimental: as §1, §6

[12] = MA-104 cells, A2 strain RSV (Table 8), read-out: EC50 Concentration for 50% inhibition of virus replication
[13] = Table 8, text says HEP-2 cells, read-out: EC50 (inhibition of RSV replication)
[14] = MA-104 cells (Table 8), read-out: IC50 Conc. for 50% cytotoxicity grade by morphological change
[15] = Table 8, text says HEP-2 cells, read-out: IC50 (toxicity)
[16] = Table 11, neutral red, q.d. 3 days, HEp2

Substance: AsAsAsAsAsTsGsGsGsGsCsAsAsAsTsAsA (AAAAATGGGGCAAATAA; antisense; DNA, all phosphorothioate, methylation of C not given here) [MP273]
- EC50 (A2 strain RSV; [12]): 3000 nM
- EC50 (A2 strain RSV; [13]): 3000 nM
- IC50 (MA-104 cells; [14]): > 10000 nM
- IC50 (MA-104 cells; [15]): > 10000 nM

Substance: AsAsAsAATGGGGCAAAsTsAsA (AAAAATGGGGCAAATAA; antisense; DNA, linkages s3 o10 s3 (s phosphorothioate, o phosphodiester), methylation of C not given here) [MP320, gapmer antisense oligonucleotide, three thiophosphorylated linkages at both termini]
- EC50 (A2 strain RSV; [12]): 10000 nM
- IC50 (MA-104 cells; [14]): > 10000 nM

Substance: GsAsAsGsAsCsAsGsAsAsTsAsAsGsAsTsA (GAAGACAGAATAAGATA; antisense; DNA, all phosphorothioate, methylation of C not given here) [MP318]
- EC50 (A2 strain RSV; [12]): 10000 nM
- EC50 (A2 strain RSV; [13]): 10000 nM
- IC50 (MA-104 cells; [14]): 8000 nM
- IC50 (MA-104 cells; [15]): 8000 nM

Substance: spA2'p(A2'p)3 -[(Bu)p]2 -(5'cta tcg gtt aga taa ac3'-3'a5') [spA4-antiRSV3'-3'A/(8530-8547)]
- inhibition of levels of M2 RNA (RSV M2 RNA): 17%

Substance: AsTsAsAsGsGsGsGsAsAsCsAsTsAsAsAsA (ATAAGGGGAACATAAAA; antisense; DNA, all phosphorothioate, methylation of C not given here) [MP317, control all PS oligonucleotide that still contained the G quartet motif but otherwise scrambled]
- EC50 (A2 strain RSV; [12]): 1000 nM
- EC50 (A2 strain RSV; [13]): 1000 nM
- IC50 (MA-104 cells; [14]): 5000 nM
- IC50 (MA-104 cells; [15]): 5000 nM

Substance: 2-5A-L2-AsAsAsAATGGGGCAAAsTsAsA [MP351]
- EC50 [1]: 1600 nM
- EC50 (RSV CH18537 (B) [2]): 100 nM
- IC50 (Hep-2 Cells [3]; Table 11, neutral red, B.I.D. 2 days, HEp2): 3200 nM
- IC50 (Hep-2 Cells [3]; Table 11, neutral red, B.I.D. 3 days, HEp2): > 3200 nM
- IC50 (Hep-2 Cells [3]; Table 11, neutral red, B.I.D. 4 days, HEp2): 3200 nM
- IC50 (Hep-2 Cells [3]; Table 11, neutral red, q.d. 1 day (added along with virus, never replenished), HEp2): > 3200 nM
- IC50 (Hep-2 Cells [3]; [16]): 2000 nM
- IC50 (Hep-2 Cells [3]; Table 11, neutral red, q.d. 4 days, HEp2): > 3200 nM
- IC50 (Hep-2 Cells [3]; Table 12, neutral red, test with 393 (clinical isolate), HEp-2): > 3200 nM
- IC50 (Hep-2 Cells [3]; Table 12, neutral red, test with CH18537 (B), HEp-2): 2400 nM
- IC50 (Hep-2 Cells [3]; Table 12, neutral red, test with Long (A), HEp-2): 2000 nM
- IC50 (Hep-2 Cells [3]; Table 13, neutral red, q.d., Day 0, HEp-2): > 3200 nM
- IC50 (Hep-2 Cells [3]; Table 13, neutral red, q.d., Day 1, HEp-2): > 3200 nM
- IC50 (Hep-2 Cells [3]; Table 13, neutral red, q.d., Day 2, HEp-2): 2200 nM
- IC50 (Hep-2 Cells [4]; Table 10, CPE, B.I.D. 2 days, HEp2): > 3200 nM
- IC50 (Hep-2 Cells [4]; Table 10, CPE, B.I.D. 3 days, HEp2): > 3200 nM
- IC50 (Hep-2 Cells [4]; Table 10, CPE, B.I.D. 4 days, HEp2): 3200 nM
- IC50 (Hep-2 Cells [4]; Table 10, CPE, q.d. 1 day (added along with virus, never replenished), HEp2): > 3200 nM
- IC50 (Hep-2 Cells [4]; Table 10, CPE, q.d. 3 days, HEp2): > 3200 nM
- IC50 (Hep-2 Cells [4]; Table 10, CPE, q.d. 4 days, HEp2): > 3200 nM
- IC50 (Hep-2 Cells [4]; Table 12, CPE, test with 393 (clinical isolate), HEp-2): > 3200 nM
- IC50 (Hep-2 Cells [4]; Table 12, CPE, test with CH18537 (B), HEp-2): > 3200 nM
- IC50 (Hep-2 Cells [4]; Table 12, CPE, test with Long (A), HEp-2): > 3200 nM
- IC50 (Hep-2 Cells [4]; Table 13, CPE, q.d., Day 0, HEp-2): > 3200 nM
- IC50 (Hep-2 Cells [4]; Table 13, CPE, q.d., Day 1, HEp-2): > 3200 nM
- IC50 (Hep-2 Cells [4]; Table 13, CPE, q.d., Day 2, HEp-2): 2200 nM
- EC50 [5]: 300 nM
- EC50 (A2 strain RSV; MA104 cells, CPE assay, added once or once daily for 2 days, read-out: EC50): 1000 nM
- EC50 (A2 strain RSV; [12]): 300 nM
- EC50 (RSV Long (A) [6]): 400 nM
- EC50 (RSV strain A2 [7]; [16]): 50 nM
- EC50 (RSV strain A2 [7]; Table 13, neutral red, q.d., fresh compound up to Day 1 post infection, HEp-2): 320 nM
- EC50 (RSV strain A2 [8]; virus yield reduced by 50%): 320 nM
- EC90 (RSV strain A2 [8]; virus yield reduced by 90%): 1000 nM
- IC50 (MA-104 cells; [14]): > 10000 nM
- EC50 (RSV CH18537 (B) [9]): 100 nM
- EC50 (RSV strain A2 [10]): 40 nM
- EC50 (RSV Long (A) [11]): 300 nM
